From patent EP2212334B1, “PROTEASOME INHIBITORS” (Millennium Pharmaceuticals, Inc., priority 2007, dated 2009) come the findings set out here.

In this experiment the target is T1, rat spleen 20S immunoproteasome (Rattus norvegicus, UniProt P28064+P28077).
T1 construct: rat spleen 20S immunoproteasome (Boston Biochem, 0.25 nM final); purchased Boston Biochem; host or cells: rat spleen (tissue-derived 20S immunoproteasome)
The experiment in a line: Rat 20S (PA28 activation) β1i and β5i Proteasome Assays (result stated for one or both). Conditions: human PA28 activator, Ac-PAL-AMC (β1i) or Ac-ANW-AMC (β5i) substrate, not stated which of the two assays. In kind it is biochemical. As for the experimental part:
Rat 20S (PA28 activation) β1i Proteasome Assay
(§1) To 1 µL of test compound dissolved in DMSO in a 384-well black microtiter plate is added 25 µL of assay buffer at 37 °C containing human PA28 activator (Boston Biochem, 12 nM final) with Ac-PAL-AMC (•1i selective substrate) (40 µM final), followed by 25 µL of assay buffer at 37 °C containing rat spleen 20S immunoproteasome (Boston Biochem, 0.25 nM final). Assay buffer is composed of 20 mM HEPES, 0.5 mM EDTA and 0.01% BSA, pH7.4. The reaction is followed on a BMG Galaxy plate reader (37 °C, excitation 380 nm, emission 460 nm, gain 20). Percent inhibition is calculated relative to 0% inhibition (DMSO) and 100% inhibition (10 µM bortezomib) controls.
Rat 20S (PA28 activation) β5i Proteasome Assay
as §1, with “Ac-ANW-AMC •5i” for “Ac-PAL-AMC (•1i”, “substrate (30” for “substrate) (40”, “final)” for “final),”, “(37°C,” for “(37 °C,”
The compound `Cc1cccc(C[C@H](NC(=O)C2(NC(=O)c3ccc(Cl)cc3)CC2)B(O)O)c1` [Compound 2, [(1R)-1-[((1-[(4-chlorobenzoyl)amino]cyclopropyl)carbonyl)amino]-2-(3-methylphenyl)ethyl]boronic acid] displayed an IC50 of at most 10000 nM.
The figure for `CC(C)C[C@H](NC(=O)[C@]1(NC(=O)c2cnccn2)C[C@H]1c1ccccc1)B(O)O` [Compound 3, {(1R)-3-methyl-1-[(((1S,2S)-2-phenyl-1-[(pyrazin-2-ylcarbonyl)amino]-cyclopropyl}carbonyl)amino]butyl)boronic acid] is at most 1000 nM; for `CC(C)C[C@H](NC(=O)C1(NC(=O)OCc2ccccc2)CCC1)B(O)O` [Compound 18, ((1R)-1-{[(1-{[(benzyloxy)carbonyl]amino}cyclobutyl)carbonyl]amino}-3-methylbutyl)boronic acid] it is at most 1000 nM; for `Cc1ccc(C[C@H](NC(=O)C2(NC(=O)c3cnccn3)CC2)B(O)O)cc1` [Compound 19, {(1R)-2-(4-methylphenyl)-1-[({1-[(pyrazin-2-ylcarbonyl)amino]cyclopropyl}-carbonyl)amino]ethyl}boronic acid] it is at most 10000 nM.
Next, `CC(C)C[C@H](NC(=O)C(C)(C)NC(=O)c1cnc2ccccc2n1)B(O)O` [Compound 21, [(1R)-3-methyl-1-({2-methyl-2-[(quinoxalin-2-ylcarbonyl)amino]propanoyl}-amino)butyl]boronic acid]: at most 1000 nM; `CC(C)C[C@H](NC(=O)C1(NC(=O)Cc2ccccc2)CC1)B(O)O` [Compound 22, {(1R)-3-methyl-1-[({1-[(phenylacetyl)amino]cyclopropyl}carbonyl)amino]-butyl}boronic acid]: at most 1000 nM; `CC(C)C[C@H](NC(=O)C(C)(C)NC(=O)c1ccc(Cl)cc1)B(O)O` [Compound 25, [(1R)-1-({2-[(4-chlorobenzoyl)amino]-2-methylpropanoyl]amino)-3-methylbutyl]boronic acid]: at most 1000 nM.
Next, `CC(C)C[C@H](NC(=O)C(C)(C)NC(=O)c1cnccn1)B(O)O` [Compound 28, [(1R)-3-methyl-1-({2-methyl-2-[(pyrazin-2-ylcarbonyl)amino]propanoyl}-amino)butyl]boronic acid]: at most 1000 nM.
In turn, `CC(C)C[C@H](NC(=O)C1(NC(=O)c2ccccc2C(F)(F)F)CC1)B(O)O` [Compound 30, ((1R)-3-methyl-1-{[(1-{[2-(trifluoromethyl)benzoyl]amino}cyclopropyl)-carbonyl]amino)butyl)boronic acid] gave an IC50 of at most 1000 nM.
Next, `CC(C)C[C@H](NC(=O)C(C)(C)NC(=O)OCc1ccccc1)B(O)O` [Compound 32, ((1R)-1-[(2-([(benzyloxy)carbonyl]amino)-2-methylpropanoyl)amino]-3-methylbutyl)boronic acid]: at most 1000 nM.

Usually IC50 stands for the concentration that gives 50% inhibition. Higher therefore signals weaker potency in that assay.
